Here are results for 39 compounds from US20230000842A1, “METHODS OF TREATING CARTILAGE DISORDERS THROUGH INHIBITION OF CLK AND DYRK” (SAMUMED, LLC, priority 2019, published 2023).

Assay [1] addresses CLK2 kinase (Homo sapiens, UniProt P49760). Nature of the assay: CLK2 kinase activity assay (Z-lyte FRET).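 Further: FRET read-out as coumarin to fluorescein emission ratio, unphosphorylated peptide as 0% and phosphorylated peptide as 100% controls, duplicate reactions, non-linear regression fit of dose-response curves.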 The class given is biochemical. The settings on record: Z-lyte Ser/Thr 6 peptide, 60 μM ATP, 1 h at room temperature.
For assay [2], the target named is CLK3 kinase (Homo sapiens, UniProt P49761). Nature of the assay: CLK3 kinase activity assay (Z-lyte FRET).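 Further: kinase activity read as coumarin/fluorescein emission ratio by FRET, unphosphorylated peptide as 0% and phosphorylated peptide as 100% control, values from non-linear regression of dose-response curves.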 The class given is biochemical. The settings on record: Z-lyte Ser/Thr 18 peptide, 156 μM ATP, 1 h at room temperature.
CLK3 kinase, sequence (P49761 whole entry): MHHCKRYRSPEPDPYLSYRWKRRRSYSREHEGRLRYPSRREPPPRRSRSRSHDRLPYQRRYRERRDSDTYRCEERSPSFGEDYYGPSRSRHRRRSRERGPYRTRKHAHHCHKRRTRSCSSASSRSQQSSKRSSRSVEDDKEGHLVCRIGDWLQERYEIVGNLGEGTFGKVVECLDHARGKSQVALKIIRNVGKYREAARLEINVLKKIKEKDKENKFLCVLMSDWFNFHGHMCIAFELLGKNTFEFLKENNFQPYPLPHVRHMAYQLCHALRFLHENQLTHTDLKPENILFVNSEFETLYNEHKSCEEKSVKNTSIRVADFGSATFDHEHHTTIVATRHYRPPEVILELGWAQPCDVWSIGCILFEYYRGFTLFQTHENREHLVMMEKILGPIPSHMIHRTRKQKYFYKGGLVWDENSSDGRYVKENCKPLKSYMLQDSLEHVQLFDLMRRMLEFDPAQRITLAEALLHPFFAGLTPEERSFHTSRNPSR
The test system of assay [3] is Wnt pathway activity (SW480 colon carcinoma cells stably expressing the Sp5-Luc reporter). Nature of the assay: Wnt pathway activity screening assay (Sp5-Luc reporter gene assay). The settings on record: Homo sapiens, SW480, Table 4; SW480 cells stably expressing Sp5-Luc reporter, 10-point dose-response from 10 μM, 36 to 48 hours.
Method: The screening assay for Wnt pathway activity is described as follows.
SW480 colon carcinoma cells were transduced with a lentiviral vector expressing luciferase with a human Sp5 promoter consisting of a sequence of eight TCF/LEF binding sites. […] These stably transduced SW480 cells were expanded in cell culture and used for all further screening activities. Each compound was dissolved in DMSO as a 10 mM stock and used to prepare compound source plates. Serial dilution (1:3, 10-point dose-response curves starting from 10 μM) and compound transfer was performed using the ECHO 550 (Labcyte, Sunnyvale, Calif.) into 384-well white solid bottom assay plates (Greiner Bio-One) with appropriate DMSO backfill for a final DMSO concentration of 0.1%. […] Following incubation, 15 μl of BriteLite Plus luminescence reagent (Perkin Elmer) was added to each well of the 384-well assay plates. The plates were placed on an orbital shaker for 2 min and then luminescence was quantified using the Envision (Perkin Elmer) plate reader.
The test system of assay [4] is primary human mesenchymal stem cells (hMSCs). Put plainly: Chondrogenesis screening using primary human mesenchymal stem cells. The class given is cell-based. The settings on record: Homo sapiens, Mesenchymal stem cells, hMSC chondrogenesis; for EC50: concentration required to induce 50% levels of chondrogenesis with TGF-β3 as positive control, read-out: Conc (nM) of 50% TGF-β3 activity; for Emax: maximum activity relative to TGF-β3 (10 ng/mL) positive control, read-out: Max. Activity as % TGF-β3 activity. From the text: Representative compounds were screened using primary human mesenchymal stem cells (hMSCs) to determine their ability to induce chondrogenesis (process by which cartilage is developed).
Human Mesenchymal Stem Cell Culture: Primary human mesenchymal stem cells (hMSCs) were purchased from Lonza (Walkersville, Md.) and expanded in Mesenchymal Stem Cell Growth Media (Lonza). Cells between passage 3 and 6 were used for the experiments.
Area of nodules in each well was normalized to the average of 3 DMSO treated wells on the same plate using Excel (Microsoft Inc.). The normalized averages (fold change over DMSO) of 2 or 3 replicate wells for each compound concentration were calculated. Due to solubility limitations of some of the compounds, curve fitting was incomplete leading to inaccurate EC50 determinations.
Using TGF-β3 as a positive control, the concentration of representative compounds required to induce 50% levels of chondrogenesis is reported. In addition, the maximum activity of each compound and the respective dose that each compound reached maximum chondrogenesis activity is reported.

A value given as a limit tells only on which side of the number the result lay.

CLK2 kinase, sequence (P49760 whole entry): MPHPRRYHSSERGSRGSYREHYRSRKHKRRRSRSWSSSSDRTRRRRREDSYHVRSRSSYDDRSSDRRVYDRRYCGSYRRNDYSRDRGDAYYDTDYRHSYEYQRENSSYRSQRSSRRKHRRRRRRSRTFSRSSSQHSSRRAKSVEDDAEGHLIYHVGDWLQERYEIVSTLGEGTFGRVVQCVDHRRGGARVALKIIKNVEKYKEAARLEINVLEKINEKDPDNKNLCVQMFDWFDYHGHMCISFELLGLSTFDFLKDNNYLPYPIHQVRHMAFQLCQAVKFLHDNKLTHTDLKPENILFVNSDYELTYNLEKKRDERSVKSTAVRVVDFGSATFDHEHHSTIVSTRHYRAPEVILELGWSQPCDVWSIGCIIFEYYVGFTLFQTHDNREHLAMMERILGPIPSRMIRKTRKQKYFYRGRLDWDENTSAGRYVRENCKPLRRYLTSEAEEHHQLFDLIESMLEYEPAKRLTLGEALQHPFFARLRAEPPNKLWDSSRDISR

Take `O=C(Nc1ccnnc1)c1n[nH]c2ccc(-c3cncc(CN4CCCCC4)c3)cc12` [compound 94]: the figures for the EC50 in assay [1], in assay [2] and in assay [3] were 1 nM, 11 nM and 40 nM, respectively.

Consider `Cc1n[nH]c2cc(F)c(-c3cncc(CN4CCCCC4)n3)cc12` [compound 40], for which the EC50 in assay [1] amounted to 45 nM; in assay [2], 2380 nM; in assay [3], 2440 nM.

As to `O=C(Nc1cnccn1)c1n[nH]c2ccc(-c3cncc(CN4CCCCC4)c3)cc12` [compound 95], the EC50 was determined as 1 nM in assay [1], 46 nM in assay [2] and 289 nM in assay [3].

Turning to `CN(C)CCOc1cncc(-c2cnc3[nH]nc(-c4nc5c(-c6cccc(F)c6)nccc5[nH]4)c3c2)c1` [compound 151], the values for the EC50 in assay [1], in assay [2] and in assay [3] were 1 nM, 55 nM and 253 nM, respectively.

`O=C(Nc1ccc(N2CCC(O)CC2)nc1)c1n[nH]c2ccc(-c3cncc(CN4CCCCC4)c3)cc12` [compound 91]: the EC50 in assay [1] worked out at 1 nM; in assay [2], 22 nM; in assay [3], 49 nM.

In the case of `Cc1ccncc1-c1ccc2[nH]nc(-c3cc4c(-c5ccncc5)ccnc4[nH]3)c2n1` [compound 376], the EC50 is 300 nM in assay [4], 11 nM in assay [1] and more than 10000 nM in assay [3]. In addition, the Emax in assay [4] was 56.5%.

With `c1cc(-c2ccnc3[nH]c(-c4n[nH]c5ccc(-c6cncc(CNCC7CCCC7)c6)nc45)cc23)ccn1` [compound 396], the EC50 in assay [4] is 100 nM; in assay [1], 12 nM; in assay [3] it was more than 10000 nM. The Emax in assay [4] was 67.2%.

As for `Nc1cncc(-c2cc3c(-c4cc5c(-c6ccncc6)cncc5[nH]4)n[nH]c3cn2)c1` [compound 381], the EC50 was 10 nM in assay [4], 3 nM in assay [1] and more than 10000 nM in assay [3]. Further, the Emax in assay [4] was found to be 52%.

Take `CN1CCN(c2cc(C(=O)Nc3cc4cc(-c5cnn(C)c5)ccc4cn3)ccn2)CC1` [compound 545]: the Emax in assay [4] turned out to be 27.1%.

Regarding `CN(C)c1cncc(-c2cnc3[nH]nc(-c4cc5c(-c6ccncc6)cncc5[nH]4)c3c2)c1` [compound 397], in assay [4], the Emax is 191%. Also, the EC50 is 3 nM in assay [1] and more than 10000 nM in assay [3].

Take `CN(C)CCOc1cncc(-c2cc3c(-c4cc5c(-c6ccc(F)cc6)nccc5[nH]4)n[nH]c3cn2)c1` [compound 318]: the EC50 in assay [4] worked out at 900 nM; in assay [1] it was 19 nM; in assay [3], 3000 nM. Moreover, the Emax in assay [4] came to 113%.

Take `Nc1cncc(-c2cnc3[nH]nc(-c4cc5c(-c6ccncc6)ccnc5[nH]4)c3c2)c1` [compound 380]: the Emax in assay [4] turned out to be 11.9%. In addition, the EC50 in assay [1] was 5 nM; in assay [3] it was more than 10000 nM.

Consider `Nc1cncc(-c2cc3c(-c4cc5c(-c6ccccc6F)ccnc5[nH]4)n[nH]c3cn2)c1` [compound 325], for which the Emax in assay [4] stood at 32.4%. Also, the EC50 is 4 nM in assay [1] and more than 10000 nM in assay [3].

In the case of `CN1CC2CCC(C1)N2C(=O)Nc1cc2cc(-c3cnn(C)c3)ccc2cn1` [compound 638], the EC50 is 1130 nM in assay [1] and more than 10000 nM in assay [3].

For `Cc1n[nH]c2ccc(-c3cncc(OC4CCNCC4(F)F)n3)cc12` (stereo not drawn) [compound 47], in assay [4], the EC50 was determined as 300 nM and the Emax was found to be 82.1%. Further, in assay [3], the EC50 was determined as 227 nM.

On to `Cn1cc(-c2cnc3[nH]nc(-c4cc5cccnc5[nH]4)c3c2)cn1` [compound 454], for which the EC50 is 300 nM in assay [4], 3 nM in assay [1] and more than 10000 nM in assay [3]. The Emax in assay [4] came to 51.7%.

Take `COc1cccc(-c2cncc3[nH]c(-c4n[nH]c5ccc(-c6cn[nH]c6)nc45)nc23)c1` [compound 633]: the EC50 in assay [1] is 3 nM; in assay [3], more than 10000 nM.

As for `CN1CCN(c2ccnc3[nH]c(-c4n[nH]c5ccc(-c6cn[nH]c6)nc45)cc23)CC1` [compound 498], the EC50 in assay [4] was 300 nM; in assay [1], 3 nM; in assay [3], more than 10000 nM. In addition, in assay [4], the Emax came to 60.1%.

With `Cn1cncc1-c1ccc2cnc(NC(=O)c3ccnc(N4CC(N)C4)c3)cc2c1` [compound 581], the figures for the EC50 in assay [1] and in assay [2] were 2 nM and 11 nM, respectively.

As to `COc1cncc(-c2ccc3[nH]nc(-c4nc5c(-c6cccc(F)c6)cncc5[nH]4)c3n2)c1` [compound 149], the EC50 in assay [4] is 20.6 nM; in assay [1], 2 nM; in assay [2] it was 65 nM. For the same compound, the Emax in assay [4] is 55.5%.

For the compound `O=C(Nc1cc2cc(-c3cnco3)cnc2cn1)[C@H]1CC[C@H](CO)CC1` [compound 640], the values for the EC50 in assay [1] and in assay [3] were 7430 nM and more than 10000 nM, respectively.

On to `Cc1n[nH]c2ccc(-c3cncc(OC4CCNC[C@@H]4F)n3)cc12` (stereo partly drawn) [compound 44], for which, in assay [4], the EC50 stood at 100 nM and the Emax was found to be 44.9%. In assay [3], this compound showed an EC50 of 627 nM.

Turning to `c1cc(-c2cncc3[nH]c(-c4n[nH]c5ccc(-c6cncc(CNCC7CCCC7)c6)cc45)nc23)cs1` [compound 250], the EC50 in assay [4] is 100 nM; in assay [1] it was 4 nM; in assay [3], 58 nM. For the same compound, the Emax in assay [4] was 167%.

For `CN(C)Cc1cncc(-c2cnc3[nH]nc(-c4nc5c(-c6ccsc6)cccc5[nH]4)c3c2)c1` [compound 251], the EC50 came to 300 nM in assay [4], 67 nM in assay [2] and 32 nM in assay [3]. For the same compound, the Emax in assay [4] amounted to 105%.

For `O=C(CC1CCNCC1)Nc1cncc(-c2cnc3[nH]nc(-c4cc5c(-c6ccncc6)ccnc5[nH]4)c3c2)c1` [compound 393], the Emax in assay [4] stood at 26.7%. Moreover, the EC50 in assay [1] was 6 nM; in assay [3], more than 10000 nM.

In the case of `Fc1cccc(-c2cncc3[nH]c(-c4n[nH]c5ccc(-c6cn[nH]c6)nc45)nc23)c1` [compound 154], the values for the EC50 in assay [4], in assay [1] and in assay [3] were 20.6 nM, 3 nM and more than 10000 nM, respectively. Also, the Emax in assay [4] was found to be 51.8%.

Take `COc1cncc(-c2ccc3[nH]nc(-c4nc5c(-c6cccc(F)c6)ccnc5[nH]4)c3n2)c1` [compound 150]: in assay [4], the Emax came out at 47%. Further, the EC50 in assay [1] was 3 nM; in assay [2], 89 nM.

Consider `O=C(Nc1ccc(OCCN2CCCC2)nc1)c1n[nH]cc1C#Cc1cccnc1` [compound 28], for which, in assay [4], the Emax came to 68.8%. Besides, the EC50 in assay [1] came to 46 nM; in assay [3], 409 nM.

In the case of `Cc1n[nH]c2ccc(-c3cncc(OC4CCNC[C@H]4F)n3)cc12` (stereo partly drawn) [compound 45], in assay [4], the EC50 amounted to 30 nM and the Emax was 54.2%. The compound further returned an EC50 in assay [3] of 834 nM.

In the case of `c1cc(-c2ccnc3[nH]c(-c4n[nH]c5ccc(-c6cncc(OCCN7CCCC7)c6)nc45)cc23)ccn1` [compound 404], the Emax in assay [4] came out at 39.6%. The EC50 is 5 nM in assay [1] and more than 10000 nM in assay [3].

As for `c1cc(-c2ccnc3[nH]c(-c4n[nH]c5ccc(-c6cncnc6)cc45)cc23)ccn1` [compound 405], the Emax in assay [4] is 17.3%. The EC50 in assay [1] is 3 nM; in assay [3], more than 10000 nM.

Consider `CN1CCN(c2cccc3[nH]c(-c4n[nH]c5ncc(-c6cncc(CN7CCCCC7)c6)cc45)cc23)CC1` [compound 494], for which the EC50 in assay [4] worked out at 300 nM; in assay [1], 12 nM; in assay [2] it was 973 nM.

Consider `CCCC(=O)Nc1cncc(-c2cnc3[nH]nc(-c4cc5c(-c6ccncc6)ccnc5[nH]4)c3c2)c1` [compound 384], for which the EC50 came to 30 nM in assay [4], 100 nM in assay [2] and 999 nM in assay [3]. Moreover, in assay [4], the Emax is 50.3%.

Regarding `CC(C)Nc1cncc(-c2cnc3[nH]nc(-c4cc5c(-c6ccccc6F)ccnc5[nH]4)c3c2)c1` [compound 333], the results for the EC50 in assay [4], in assay [1] and in assay [3] were 10 nM, 20 nM and more than 10000 nM, respectively. Besides, in assay [4], the Emax came out at 81.6%.

On to `O=C(Nc1cncc(-c2cnc3[nH]nc(-c4cc5cccnc5[nH]4)c3c2)c1)c1ccccc1` [compound 436], for which the Emax in assay [4] was found to be 21.8%. Besides, the EC50 in assay [1] was 8 nM; in assay [3], more than 10000 nM.

Turning to `COc1cncc(C#Cc2c[nH]nc2C(=O)Nc2ccc(N3CCNCC3)nc2)c1` [compound 29], the Emax in assay [4] was 74.7%. The EC50 in assay [1] is 25 nM; in assay [3] it was more than 10000 nM.

Take `O=C(Cc1ccccc1)Nc1cncc(-c2ccc3[nH]nc(-c4nc5c(-c6ccncc6)ccnc5[nH]4)c3n2)c1` [compound 626]: the EC50 in assay [1] is 7 nM; in assay [3], more than 10000 nM.

For `CNC(=O)c1ccc(C(=O)Nc2cc3cc(-c4cn(C)nn4)ccc3cn2)cn1` [compound 577], the EC50 was 3 nM in assay [1] and 56 nM in assay [2].

As for `Cc1n[nH]c2ccc(-c3cncc(NC4CCNC[C@@H]4F)n3)cc12` (stereo partly drawn) [compound 42], the Emax in assay [4] was determined as 25.6%. For the same compound, the EC50 in assay [3] turned out to be 84.3 nM.
